Measured values reported in patent US20240252474A1, “METHODS AND COMPOSITIONS COMPRISING A CARDIO-TOLERATED HDAC INHIBITOR” (HUYABIO International, LLC, priority 2023, published 2024).

Assay: Phase 1b safety and tolerability of HBI-8000 combined with nivolumab (DLTs, TEAEs)
Assay type: in vivo
Settings: for Dose-limiting toxicity (DLT): + nivolumab, 28 days
Experimental: The present example, was a Phase Ib/2 open-label dose finding study for HBI-8000 (also referred to in the art as “chidamide” or “tucidinostat” and also referred to herein as a compound of formula I) in combination with nivolumab in patients with advanced solid tumors, including melanoma, RCC (renal cell carcinoma), and NSCLC (non-small cell lung cancer). This study was conducted in accordance with Good Clinical Practice guidelines and the Declaration of Helsinki and with assurance/approval from the US Department of Health and Human Services; the protocol was approved by the institutional review boards or ethics committees of all participating sites. All patients provided written informed consent to participate before enrollment. […]
HBI-8000 at three dose levels (20 mg, 30 mg, and 40 mg) given orally twice a week (BIW) were evaluated. Doses were taken approximate 30 minutes after a meal. The starting dose (20 mg) was selected based on pharmacokinetic profiles established for monotherapy in Japanese patients with T-cell lymphoma.
The decision to escalate the dose was based on the conventional 3+3 design and observed incidences of dose-limiting toxicities (DLTs). Each treatment cycle was defined as 28 days. […] Subjects experiencing DLT within the first two weeks after having received 100% of assigned dose of HBI-8000 are also evaluable for DLT. Unacceptable toxicities were defined as grade 3 or higher non-hematologic and hematologic toxicities with clinical complications. Unacceptable toxicities observed over the first 28 days following HBI-8000 administration were considered as DLTs. […] HBI-8000 administration continued until disease progression or unacceptable toxicity was observed. The efficacy of the combination was further evaluated in an expanded cohort of selected patient populations at RP2D based on an objective response rate according to Response Evaluation Criteria in Solid Tumors (RECIST) version 1.1 criteria, progression-free survival, and duration of responses.
Safety evaluations included physical examinations, vital signs, ECGs, ECOG performance status, and laboratory tests.
Statistical analyses of safety, tolerability, and anti-tumor activity were primarily descriptive in nature. Toxicities were tabulated by type and grade. The safety population included all patients who received ≥1 dose of HBI-8000 and nivolumab. Continuous variables were summarized using descriptive statistics and categorical variables were summarized with number and percentage at each category. Pharmacokinetic parameters were derived using noncompartmental methods with Phoenix® WinNonlin® Version 6.4 (Certara, L. P., Princeton, NJ, USA).

[1] = 40 mg HBI-8000 BIW + nivolumab, N = 7
[2] = 20, 30 and 40 mg HBI-8000 + nivolumab, N = 17

In the case of Nc1cc(F)ccc1NC(=O)c1ccc(CNC(=O)/C=C/c2cccnc2)cc1 [HBI-8000, N-(2-amino-4-fluorophenyl)-4-[[[(2E)-1-oxo-3-(3-pyridinyl)-2-propen-1-yl]amino]methyl]benzamide], the “Any SAE, number of subjects” value [1] is reported as 4 n, the “Any TEAE, number of subjects” value [1] is reported as 7 n and the “Aspartate aminotransferase increased, All, G < 3” value [1] is reported as 1 (14) n (%). For the same molecule, the “Aspartate aminotransferase increased, Related Both, Any G” value [1] was 1 (14) n (%), the “Atrial fibrillation, All, G < 3” value [1] was 2 (29) n (%) and the “Atrial fibrillation, All, G ≥ 3” value [1] was 1 (14) n (%). The “Atrial fibrillation, Related Both, Any G” value [1] was 1 (14) n (%), the “Contusion, All, G < 3” value [1] was 3 (43) n (%) and the “Contusion, Related Both, Any G” value [1] was 2 (29) n (%). The “Contusion, Related HBI, Any G” value [1] was 1 (14) n (%), the “Decreased appetite, All, G < 3” value [1] was 3 (43) n (%) and the “Decreased appetite, All, G ≥ 3” value [1] was 1 (14) n (%). The “Decreased appetite, Related Both, Any G” value [1] was 1 (14) n (%), the “Decreased appetite, Related HBI, Any G” value [1] was 2 (29) n (%) and the “Dehydration, All, G < 3” value [1] was 2 (29) n (%). The “Diarrhoea, All, G < 3” value [1] was 2 (29) n (%), the “Diarrhoea, All, G ≥ 3” value [1] was 1 (14) n (%) and the “Diarrhoea, Related Both, Any G” value [1] was 2 (29) n (%). The “Diarrhoea, Related HBI, Any G” value [1] was 1 (14) n (%), the “Dizziness, All, G < 3” value [1] was 2 (29) n (%) and the “Dizziness, Related Both, Any G” value [1] was 1 (14) n (%). The “Dizziness, Related HBI, Any G” value [1] was 1 (14) n (%), the “Dyspnoea, All, G < 3” value [1] was 3 (43) n (%) and the “Dyspnoea, All, G ≥ 3” value [1] was 1 (14) n (%). The “Dyspnoea, Related Both, Any G” value [1] was 1 (14) n (%), the “Fall, All, G < 3” value [1] was 2 (29) n (%) and the “Fatigue, All, G < 3” value [1] was 2 (29) n (%). For the same molecule, the “Fatigue, All, G ≥ 3” value [1] was 2 (29) n (%), the “Fatigue, Related Both, Any G” value [1] was 2 (29) n (%) and the “Fatigue, Related HBI, Any G” value [1] was 1 (14) n (%). The “Headache, All, G < 3” value [1] was 1 (14) n (%), the “Headache, All, G ≥ 3” value [1] was 1 (14) n (%) and the “Headache, Related Both, Any G” value [1] was 1 (14) n (%). The “Headache, Related HBI, Any G” value [1] was 1 (14) n (%), the “Hypocalcaemia, All, G < 3” value [1] was 2 (29) n (%) and the “Hypocalcaemia, Related Both, Any G” value [1] was 1 (14) n (%). For the same molecule, the “Hypocalcaemia, Related HBI, Any G” value [1] was 1 (14) n (%), the “Hypokalemia, All, G < 3” value [1] was 1 (14) n (%) and the “Hypokalemia, Related Both, Any G” value [1] was 1 (14) n (%). The “Hypophosphataemia, All, G < 3” value [1] was 2 (29) n (%), the “Hypophosphataemia, Related Both, Any G” value [1] was 1 (14) n (%) and the “Hypophosphataemia, Related HBI, Any G” value [1] was 1 (14) n (%). The “Hypotension, All, G < 3” value [1] was 3 (43) n (%), the “Hypotension, Related Both, Any G” value [1] was 1 (14) n (%) and the “Lipase increased, All, G < 3” value [1] was 1 (14) n (%). The “Lipase increased, Related Both, Any G” value [1] was 1 (14) n (%), the “Lymphocyte count decreased, All, G < 3” value [1] was 2 (29) n (%) and the “Lymphocyte count decreased, Related Both, Any G” value [1] was 2 (29) n (%). The “Nausea, All, G < 3” value [1] was 3 (43) n (%), the “Nausea, Related Both, Any G” value [1] was 2 (29) n (%) and the “Nausea, Related HBI, Any G” value [1] was 2 (29) n (%). For the same molecule, the “Neutrophil count decreased, All, G < 3” value [1] was 2 (29) n (%), the “Neutrophil count decreased, All, G ≥ 3” value [1] was 1 (14) n (%) and the “Neutrophil count decreased, Related Both, Any G” value [1] was 1 (14) n (%). For the same molecule, the “Neutrophil count decreased, Related HBI, Any G” value [1] was 1 (14) n (%), the “Non-cardiac chest pain, All, G < 3” value [1] was 2 (29) n (%) and the “Non-cardiac chest pain, Related HBI, Any G” value [1] was 1 (14) n (%). The “Oedema peripheral, All, G < 3” value [1] was 2 (29) n (%), the “Oedema peripheral, Related Both, Any G” value [1] was 1 (14) n (%) and the “Platelet count decreased, All, G < 3” value [1] was 3 (43) n (%). For the same molecule, the “Platelet count decreased, Related Both, Any G” value [1] was 1 (14) n (%), the “Platelet count decreased, Related HBI, Any G” value [1] was 2 (29) n (%) and the “Pleural effusion, All, G < 3” value [1] was 2 (29) n (%). The “SAE related to HBI-8000 & Nivolumab, number of subjects” value [1] was 0 n, the “SAE related to HBI-8000 alone, number of subjects” value [1] was 0 n and the “TEAE related to HBI-8000 & Nivolumab, number of subjects” value [1] was 3 n. For the same molecule, the “TEAE related to HBI-8000 alone, number of subjects” value [1] was 6 n, the “TEAE resulting in discontinuation of HBI-8000 alone, number of subjects” value [1] was 2 n and the “TEAE resulting in discontinuation of both HBI-8000 and Nivo, number of subjects” value [1] was 2 n. For the same molecule, the “Vomiting, All, G < 3” value [1] was 2 (29) n (%), the “Vomiting, Related Both, Any G” value [1] was 2 (29) n (%) and the “Weight decreased, All, G < 3” value [1] was 1 (14) n (%). The “Weight decreased, Related Both, Any G” value [1] was 1 (14) n (%), the “White blood cell count decreased, All, G < 3” value [1] was 3 (43) n (%) and the “White blood cell count decreased, Related Both, Any G” value [1] was 1 (14) n (%). For the same molecule, the “White blood cell count decreased, Related HBI, Any G” value [1] was 2 (29) n (%), the “Incidence of TEAE related to HBI-8000 alone versus dose” value (20, 30, 40 mg BIW + nivolumab) was “appeared to increase with escalating HBI-8000 dose” and the “Alanine aminotransferase increased, Total” value [2] was 4 (24) n (%). For the same molecule, the “Anaemia, Total” value [2] was 8 (47) n (%), the “Aspartate aminotransferase increased, Total” value [2] was 4 (24) n (%) and the “Atrial fibrillation, Total” value [2] was 4 (24) n (%). For the same molecule, the “Back pain, Total” value [2] was 4 (24) n (%), the “Contusion, Total” value [2] was 4 (24) n (%) and the “Decreased appetite, Total” value [2] was 9 (53) n (%). The “Dehydration, Total” value [2] was 5 (29) n (%), the “Diarrhoea, Total” value [2] was 7 (41) n (%) and the “Dizziness, Total” value [2] was 5 (29) n (%). The “Dyspnoea, Total” value [2] was 9 (53) n (%), the “Fall, Total” value [2] was 4 (24) n (%) and the “Fatigue, Total” value [2] was 10 (59) n (%). For the same molecule, the “Headache, Total” value [2] was 4 (24) n (%), the “Hypocalcaemia, Total” value [2] was 6 (35) n (%) and the “Hypokalemia, Total” value [2] was 5 (29) n (%). The “Hypophosphataemia, Total” value [2] was 5 (29) n (%), the “Hypotension, Total” value [2] was 5 (29) n (%) and the “Hypoxia, Total” value [2] was 4 (24) n (%). For the same molecule, the “Lipase increased, Total” value [2] was 5 (29) n (%), the “Lymphocyte count decreased, Total” value [2] was 5 (29) n (%) and the “Nausea, Total” value [2] was 8 (47) n (%). The “Neutrophil count decreased, Total” value [2] was 4 (24) n (%), the “Non-cardiac chest pain, Total” value [2] was 4 (24) n (%) and the “Oedema peripheral, Total” value [2] was 7 (41) n (%). For the same molecule, the “Platelet count decreased, Total” value [2] was 7 (41) n (%), the “Pleural effusion, Total” value [2] was 5 (29) n (%) and the “Vomiting, Total” value [2] was 4 (24) n (%). For the same molecule, the “Weight decreased, Total” value [2] was 7 (41) n (%), the “White blood cell count decreased, Total” value [2] was 5 (29) n (%) and the “Dose-limiting toxicity (DLT)” value (20-mg dose cohort, 3 DLT-evaluable patients) was “None”. For the same molecule, the “Dose-limiting toxicity (DLT)” value (30-mg BIW dose cohort, 3 + 3 DLT-evaluable patients) was “None and No DLT”, the “Patients with DLT: Grade 3 fatigue on days of HBI-8000 administration” value (40-mg cohort, 6 DLT-evaluable patients, RCC patient) was 1 patient and the “Patients with DLT: Grade 3 headache after first dose and grade 3 diarrhea after third dose” value (40-mg cohort, 6 DLT-evaluable patients, melanoma patient) was 1 patient. The “Any SAE, number of subjects” value (Total, all dose levels, N = 17) was 11 n, the “Any TEAE, number of subjects” value (Total, all dose levels, N = 17) was 17 n and the “TEAE related to HBI-8000 & Nivolumab, number of subjects” value (Total, all dose levels, N = 17) was 11 n. The “TEAE related to HBI-8000 alone, number of subjects” value (Total, all dose levels, N = 17) was 10 n, the “TEAE resulting in discontinuation of HBI-8000 alone, number of subjects” value (Total, all dose levels, N = 17) was 5 n and the “TEAE resulting in discontinuation of both HBI-8000 and Nivo, number of subjects” value (Total, all dose levels, N = 17) was 3 n. For the same molecule, the “Patients who died of TEAE (unrelated to HBI-8000 or nivolumab)” value (all dose levels, N = 17) was “One”, the “Patients with Grade 3 or higher TEAEs” value (all dose levels, N = 17) was 15 patients and the “Patients with only Grade 1 and 2 TEAEs” value (all dose levels, N = 17) was “Two”. The “Subjects with TEAEs attributed to the combination and TEAEs associated with HBI-8000 alone” value (all dose levels, N = 17) was “Six”, the “Recommended phase II dose (RP2D)” value (in combination with nivolumab) was 30 mg BIW and the “Maximum tolerated dose (MTD)” value (oral BIW in combination with nivolumab) was under 40 mg.
